In publication PMC3064516 (Nature structural & molecular biology, 2011):

Target: Autotaxin (ATX, ENPP2) (Homo sapiens, UniProt Q13822)
Experiment: nucleotide phosphodiesterase assay, Km
Format: biochemical

Cc1cn([C@H]2C[C@H](O)[C@@H](COP(=O)(O)Oc3ccc([N+](=O)[O-])cc3)O2)c(=O)[nH]c1=O [pNP-TMP, p-nitrophenyl thymidine 5′-monophosphate]
Km: 1930 ± 200 µM
